The values below come from patent US7074598B2, “Detection of vancomycin-resistant enterococcus spp” (Mayo Foundation for Medical Education and Research, priority 2002, dated 2006).

The subject of assay [1] is Enterococcus. Description: culture and susceptibility results of anal swab specimens (VRE screen media). In kind it is cell-based. Here is the method: An additional 56 specimens obtained from anal swabs were analyzed using the LIGHTCYCLER™ assay and were compared to a culture method using a VRE screen media. The anal swabs were prepared for amplification as described above. The LIGHTCYCLER™ assay detected more positive specimens than did culture, and is therefore more sensitive than culture. A high rate of false negative results from rectal swab culture has been previously confirmed in the literature (Clin. Infect. Dis., 2002, 34:167–172).

Assay [2] deals with vanA strains of vancomycin-resistant enterococci. Conditions: cited from earlier work; for glycopeptide resistance phenotype: vanA phenotype.
For assay [3], the system named is vanC phenotype of vancomycin-resistant enterococci. The settings on record: cited from earlier work.
The subject of assay [4] is vanB strains of vancomycin-resistant enterococci. Conditions: vanB phenotypes (vanB, vanB-2/3); cited from earlier work.
Assay [5] has as its system Enterococcus isolates from anal swabs. Description: MIC of isolates cultured from anal swabs of hospitalized patients. In kind it is cell-based. Here is the method:
Four hundred ninety seven anal swabs collected from hospitalized patients were evaluated for the presence of vanA, vanB and vanB-2/3 genes by the LIGHTCYCLER™ vancomycin-resistant enterococci assay and by conventional culture methods. 482 of the 497 specimens were negative for the van genes and 12 were positive (9 vanA; 0 vanB; 3 vanB-2/3) by the LIGHTCYCLER™ vancomycin-resistant enterococci assay and the conventional culture screen using an 8 μg/ml Enterococcosel plate. […] The MIC values for all of the other isolates were susceptible to vancomycin at ≦8 μg/ml. An additional 21 specimens (4 vanA; 5 vanB; 12 vanB-2/3) were positive by the LIGHTCYCLER™ vancomycin-resistant enterococci assay but were negative by culture. Three of these patient specimens were culture positive with a repeat swab collection. Six of the positive specimens were separate specimens from the same patients. Due to the large number of vanB genotypes missed by culture and picked up with the LIGHTCYCLER™ vancomycin-resistant enterococci assay, the concentration of vancomycin in the Enterococcesel plates was decreased to 6 μg/ml, which is the usual laboratory standard (Manual of Clinical Microbiology, 7th Ed., 1999).

Assay [6] has as its system clinical isolates of Enterococcus. Kind of assay: agar dilution antimicrobial susceptibility testing (MIC) of clinical isolates of Enterococcus. The assay is classed as cell-based. The method, then:
One hundred clinical isolates of Enterococcus (E. casseliflavus/flavescens [n=10], E. faecalis [n=34], E. faecium [n=43], E. avium [n=1], E. gallinarum [n=11], and E. raffinosus [n=1]) were grown on blood agar plates and evaluated for the presence of vanA, vanB, and vanB 2/3 genes using a rapid LIGHTCYCLER™ vancomycin-resistant enteroccoci assay. The LIGHTCYCLER™ vancomycin-resistant enteroccoci assay differentiates the three van genes based on the temperature range over which hybridization probes melt from the target DNA (e.g., as determined by a melting curve). […] The MIC values for all of the other isolates were susceptible to vancomycin at ≦8 μg/ml.
In general terms: In agar dilution the substance is mixed into plates at graded concentrations.

The mark [7] stands for this setting: Enterococcus cultured from anal swab specimen #52 (LightCycler VanA).
The mark [8] stands for this setting: Enterococcus cultured from anal swab specimen #235 (LightCycler VanA).
Where [9] appears, read: Enterococcus cultured from anal swab specimen #244 (LightCycler VanA).
[10] abbreviates: Enterococcus cultured from anal swab specimen #279 (LightCycler VanB-2/3).
The mark [11] stands for this setting: Enterococcus cultured from anal swab specimen #286 (LightCycler VanB-2/3 weak).
The mark [12] stands for this setting: Enterococcus cultured from anal swab specimen #296 (LightCycler Negative).
Where [13] appears, read: Enterococcus cultured from anal swab specimen #304 (LightCycler Negative).
Setting [14] is: Enterococcus cultured from anal swab specimen #419 (LightCycler VanA).
Where [15] appears, read: Enterococcus cultured from anal swab specimen #425 (LightCycler Negative).

For the compound Pennicillin, the “Susceptibility Results” value in assay [1] (setting [7]) is given as “S”; in assay [1] (setting [8]) it was “Amp, Van, Pen, Gent = R”; in assay [1] (setting [9]), “R”; in assay [1] (setting [10]) it was “R”; in assay [1] (setting [11]) it was “Amp, Van, Pen, Gent = S”; in assay [1] (setting [12]) it was “Amp, Van, Pen, Gent = S”. Besides, the “Susceptibility Results” value in assay [1] (setting [13]) is “S”; in assay [1] (setting [14]), “R”; in assay [1] (setting [15]) it was “S”.

As for Gentamycin, the “Susceptibility Results” value is recorded as “S” in assay [1] (setting [7]); “Amp, Van, Pen, Gent = R” in assay [1] (setting [8]); “S” in assay [1] (setting [9]); “S” in assay [1] (setting [10]); “Amp, Van, Pen, Gent = S” in assay [1] (setting [11]); “Amp, Van, Pen, Gent = S” in assay [1] (setting [12]). Also, the “Susceptibility Results” value in assay [1] (setting [13]) is “S”; in assay [1] (setting [14]) it was “I”; in assay [1] (setting [15]), “S”.

Regarding `CC1(C)S[C@@H]2[C@H](NC(=O)[C@H](N)c3ccccc3)C(=O)N2[C@H]1C(=O)O` [Amp, Ampicillan], the “Susceptibility Results” value is recorded as “S” in assay [1] (setting [7]); “Amp, Van, Pen, Gent = R” in assay [1] (setting [8]); “R” in assay [1] (setting [9]); “R” in assay [1] (setting [10]); “Amp, Van, Pen, Gent = S” in assay [1] (setting [11]); “Amp, Van, Pen, Gent = S” in assay [1] (setting [12]). In addition, the entries for the “Susceptibility Results” value in assay [1] (setting [13]), in assay [1] (setting [14]) and in assay [1] (setting [15]) were “S”, “R” and “S”, respectively.

Broadly, the MIC is the lowest concentration found to suppress growth. Turning to `CN[C@H](CC(C)C)C(=O)N[C@H]1C(=O)N[C@@H](CC(N)=O)C(=O)N[C@H]2C(=O)N[C@H]3C(=O)N[C@H](C(=O)N[C@H](C(=O)O)c4cc(O)cc(O)c4-c4cc3ccc4O)[C@H](O)c3ccc(c(Cl)c3)Oc3cc2cc(c3O[C@@H]2O[C@H](CO)[C@@H](O)[C@H](O)[C@H]2O[C@H]2C[C@](C)(N)[C@H](O)[C@H](C)O2)Oc2ccc(cc2Cl)[C@H]1O` [vancomycin], the glycopeptide resistance phenotype entry in assay [2] was “high levels of resistance”; in assay [3], “low levels of vancomycin-resistance”; in assay [4], “variable vancomycin-resistance”. The “minimum inhibitory concentration (MIC)” value in assay [2] (vanA strains, typical level) was above 64 µg/mL. Moreover, the MIC in assay [5] (all of the other isolates from anal swabs, susceptible) was at most 8 µg/mL; in assay [5] (vanA and vanB positive isolates from anal swabs, all resistant), at least 64 µg/mL; in assay [6] (all of the other isolates (van gene negative), susceptible), at most 8 µg/mL; in assay [6] (vanA, vanB, and vanB-2/3 positive isolates (43 of 100 clinical isolates), all resistant), at least 64 µg/mL. For the same compound, the “Susceptibility Results” value in assay [1] (setting [7]) is “I”; in assay [1] (setting [8]) it was “Amp, Van, Pen, Gent = R”; in assay [1] (setting [9]), “R”; in assay [1] (setting [10]), “S”; in assay [1] (setting [11]), “Amp, Van, Pen, Gent = S”; in assay [1] (setting [12]), “Amp, Van, Pen, Gent = S”. Further, the “Susceptibility Results” value in assay [1] (setting [13]) is on record as “I”; in assay [1] (setting [14]), “R”; in assay [1] (setting [15]), “I”.

For teicoplanin, the glycopeptide resistance phenotype result in assay [2] is “high levels of resistance”; in assay [3], “susceptible”; in assay [4] it was “susceptible”.
